Assay results reported in US10794897B2, “System and methods for predicting drug-induced inotropic and pro-arrhythmia risk” (AnaBios Corporation, priority 2017, dated 2020).
Read-outs that look alike come from different tables or passages of the source. Each block holds one compound with its values, some of them ahead of it.

Experiments:
[1] = tested on: human cardiomyocyte preparation; conditions: for concentration from which ACs were induced: human
[2] = tested on: ex vivo human ventricular trabeculae preparation
[3] = tested on: ex vivo human ventricular trabeculae preparation; experiment: ex vivo human ventricular trabeculae force of contraction
[4] = tested on: human cardiomyocyte preparation; experiment: human cardiomyocyte contractility transients (system 20 validation with reference drugs); conditions: human cardiomyocytes

sarcomere shortening [1]: no effects
concentration from which ACs were induced [1]: 10 -fold the fETPC
TR90 [2]: concentration-dependent increase
Compound: CC(C)NCC(O)c1ccc(NS(C)(=O)=O)cc1 (racemic) [sotalol, d,l-sotalol]

sarcomere shortening [1]: inhibited
Compound: COc1cc(N)c(Cl)cc1C(=O)NC1CCN(CCCOc2ccc(F)cc2)CC1OC (stereo not shown) [cisapride]
AC (after-contraction) incidence [1]: seen starting at the fETPC

sarcomere shortening [1]: inhibited
concentration from which ACs were induced [1]: 10 -fold the fETPC
Compound: CC[C@H]1OC(=O)[C@H](C)[C@@H](O[C@H]2C[C@@](C)(OC)[C@@H](O)[C@H](C)O2)[C@H](C)[C@@H](O[C@@H]2O[C@H](C)C[C@H](N(C)C)[C@H]2O)[C@](C)(OC)C[C@@H](C)C(=O)[C@H](C)[C@@H](O)[C@]1(C)O [clarithromycin]

sarcomere shortening [1]: no effects
concentration from which ACs were induced [1]: 10 -fold the fETPC
MAC (maximum amplitude of force of contraction) ([3]; human ventricular trabeculae): no effects
TR90 ([3]; human ventricular trabeculae): concentration-dependent increase
Compound: CN(CCOc1ccc(NS(C)(=O)=O)cc1)CCc1ccc(NS(C)(=O)=O)cc1 [dofetilide]
AC incidence ([3]; human ventricular trabeculae, starting at the fETPC): observed starting at the fETPC

sarcomere shortening [1]: inhibited
Compound: O=c1[nH]c2ccccc2n1CCCN1CCC(n2c(=O)[nH]c3cc(Cl)ccc32)CC1 [domperidone]
AC (after-contraction) incidence [1]: seen starting at the fETPC

TR90 [1]: decreased
TR90 [2]: decrease
Compound: CC(C)NCC(O)c1ccc(O)c(O)c1 (stereo not shown) [isoproterenol]
AC incidence [1]: induced no AC
CE incidence [1]: no CE incidence
AC incidence [2]: did not induce any ACs
increase of MAC ([3]; human ventricular trabeculae, at 0.03 μM): 315%
FSF ([4]; positive inotropes): increased
maximum contraction velocity ([4]; positive inotropes): increased
maximum contraction velocity time ([4]; positive inotropes): increased
maximum relaxation velocity ([4]; positive inotropes): increased
maximum relaxation velocity time ([4]; positive inotropes): no effects
peak height ([4]; positive inotropes): increased
time to 10% peak ([4]; positive inotropes): decreased
time to 50% peak ([4]; positive inotropes): decreased
time to peak ([4]; positive inotropes): no effects

TR90 ([4]; positive inotropes): no effect
Compound: C[C@@H]1CC(=O)NN=C1c1ccc(NN=C(C#N)C#N)cc1 [levosimendan]
AC incidence ([4]; at 10-fold the fETPC): levosimendan did
CE incidence ([4]; positive inotropes): no CE incidence
FSF ([4]; positive inotropes): increased
maximum contraction velocity ([4]; positive inotropes): increased
maximum contraction velocity time ([4]; positive inotropes): no effect
maximum relaxation velocity ([4]; positive inotropes): increased
maximum relaxation velocity time ([4]; positive inotropes): no effects
peak height ([4]; positive inotropes): increased
time to 10% peak ([4]; positive inotropes): no effect
time to 50% peak ([4]; positive inotropes): no effect
time to peak ([4]; positive inotropes): no effects

sarcomere shortening [1]: inhibited
Compound: Cc1cccc(C)c1OCC(C)N (stereo not shown) [mexiletine]
AC incidence [1]: induced no ACs

TR90 (time to 90% relaxation) [1]: prolongation
Compound: C=C[C@H]1C[N@@]2CC[C@H]1C[C@@H]2[C@@H](O)c1ccnc2ccc(OC)cc12 [quinidine]
AC (after-contraction) incidence [1]: concentration-dependent increases
CE (contractility escape) incidence [1]: concentration-dependent increases

sarcomere shortening [1]: inhibited
Compound: COc1ccccc1OCC(O)CN1CCN(CC(=O)Nc2c(C)cccc2C)CC1 (stereo not shown) [ranolazine]
AC incidence [1]: induced no ACs

Compound: COc1ccc(CCN(C)CCCC(C#N)(c2ccc(OC)c(OC)c2)C(C)C)cc1OC (stereo not shown) [verapamil]
IC50 ([3]; Homo sapiens, read-out: IC50 for decrease of MAC): 1460 nM
AC incidence ([4]; up to 222-fold the fETPC): neither AC or CE incidence
CE incidence ([4]; up to 222-fold the fETPC): neither AC or CE incidence
TR90 ([4]; up to 222-fold the fETPC): no change
